Laboratory results reported in patent US20120100204A1, “TGF-Beta Stimulating Agent Compositions and Combinations” (TCP INNOVATIONS LTD, priority 2007, published 2012).

Columns and labels:
[1] = test system: tgfb3 mRNA; assay: tgfb3 mRNA level by quantitative PCR in human aortic vascular smooth muscle cells; assay type: cell-based; conditions: 24 hrs
Procedure: (1995) Cardiovasc. Res. 29:848-55). […] The cells were then incubated for either 24 hrs or 72 hrs depending on the experiment. All treatment conditions were established in triplicate. The level of mRNA for tgfb1, tgfb2 and tgfb3 were estimated by quantitative PCR. The media was removed and RNA was carefully prepared using the Ambion RNAqueous4PCR kit (Ambion#1914) in accordance with the manufacturer's instructions. The purity of the RNA and the quantity was assessed spectrophotometrically. […] This analysis results in both a gel-like image as well as electrophoretic data. Indications of RNA degradation are: (a) decreasing ratio of ribosomal bands (b) additional peaks bellow the ribosomal bands (c) Decrease in overall RNA signal (d) shift towards shorter fragments. […] Next, the RNA was converted to cDNA using the ABI High-Capacity cDNA Archive Kit, in accordance with manufacturer's instructions. […] Samples were vortexed to ensure thorough mixing. cDNA was aliquoted into ABI 384 well plates using a multi-channel pipette, 4.5 μl of sample into each well. Samples were assayed in triplicate (that is, nine determinations in total were made for each condition, being three separate assays on each of three replicate culture wells). The assay mix and Universal Master Mix were prepared and aliquoted across the 384 well plates 5.5 μl in each well, using a single channel pipette. […] Universal Master Mix=5 μl; cDNA=4.5 μl. The plates were then heat sealed using Abgene clear seal strong plastic heat seals, and then cycled and scanned using the ABI 9700HT under the following conditions: 95° C. for 10 minutes to activate the AmpliTaq GOLD, then 40 cycles of: 95° C. for 15 sec (Denaturation), 60° C. for 60 […]). […] Quantitative PCR was performed using several primer/probe sets. […] We used both commercially available primer/probe sets (ABI Taqman pre-validated assays), using both available sets in the ABI database for tgfb1 and tgfb2, as well as the single available set for tgfb3. In addition, we used our own manual design probe/primer set for each of tgfb1, tgfb2 and tgfb3. […] In all quantitative PCR experiments, several additional controls were included: firstly, a control for each sample is run with no reverse transcription to ensure the mRNA sample is not contaminated with genomic DNA (although the manual design probe/primer sets were all selected to cross an exon/exon boundary, ensuring no detectable amplicon is produced from genomic DNA templates). […] Failure of either control led to the repeat of the entire experiment.

[2] = test system: apoE-deficient mice; assay: vascular lipid lesion formation at the aortic root, Oil Red O staining; assay type: in vivo; conditions: for Intimal lipid lesion area / Intimal:media area ratio / Lipid lesion area / Total intimal area: Aspirin 30 mg/kg/day, mean ± SD; for reduction of vascular lipid lesion area: Tamoxifen 1 mg/kg/day p.o, vs control
Excerpt: Adult male apoE-deficient mice, back-crossed onto a C57B16 background for at least five generations, were randomised into groups of eight animals at 12 weeks of age, such that each group had similar average body weight. […] The amount of food eaten and the body weight of each mouse was monitored daily for the first week, and once per week thereafter. After 12 weeks of treatment, the mice were sacrificed by CO2 asphyxiation, and heart & lung blocks were excised, embedded in Cryo-M-bed (Bright Instruments, UK) without fixation and snap frozen in liquid nitrogen.
Sections were then prepared from the aortic root according to the Paigen Strategy (a defined sequence of cutting sections which allow reproducible comparison between animals; see for example Grainger et al. (1995) Nature Med. 1:1067-72 and the references therein). 4 μm crysosections were cut using a motordriven cryotome (Bright Instruments) and collected onto poly-L-lysine coated glass microscope slides, then fixed in ice-cold acetone for 90 secs, allowed to air dry and stored at −20° C. until analysed.
The extent of vascular lipid lesion formation was assessed by Oil Red O staining, with a Fast Green counterstain, a standard histological procedure well known in the art. Briefly, five sections (selected according to the Paigen strategy) from each animal were passed through graded alcohol solutions, then stained in Oil Red O for 12 minutes, washed several times and then counterstained by dipping in Fast Green for 5-10 secs, and then dip washed in several changes of clean water. After air drying, an appropriate mountant was applied (simple glycerol-based moutants are most appropriate for this task), followed by a coverslip using acrylic varnish surrounding the coverslip to hold it in place. Slides were then analysed using a simple inverted microscope (no phase contrast; 10× objective; Olympus AX series), fitted with a digital camera to capture images of the entire aortic wall. The images were subsequently processed, blind to the treatment status of the animal, using Openlab image analysis software (Improvision, UK) running on an Apple Macintosh computer. On each image, the user delineated the external elastic lamina, internal elastic lamina and the luminal surface of the vessel wall, and the software reported the total intimal area, the intimal:medial area ratio, the total neutral lipid area and the intimal lipid area. The values from each image were summed (except for intimal:media area ratio, which were averaged), and then the values from each slide were summed (or averaged, as above) to yield a value for each parameter for each animal. […]
Adult male apoE-deficient mice were treated, in groups of 8, with fish oil (Seven Seas, UK), aspirin or both agents simultaneously from 12 weeks of age until 24 weeks of age, exactly as described in Example 2.
Mice were sacrificed and heart & lung blocks prepared and processed exactly as described in Example 2. Sections were prepared in accordance with the Paigen Strategy, as in example 2. The extent of lipid lesion formation was assessed by Oil Red 0 staining with Fast Green counterstain, exactly as in example 2.

[3] = translated from the relative risk; cited from earlier work
[4] = test system: DBA/1 mice; assay: collagen-induced arthritis, footpad thickness; assay type: in vivo; conditions: from the booster injection onwards, Tamoxifen 1 mg/kg/day p.o, aspirin 30 mg/kg/day p.o
Procedure: Collagen-induced arthritis was induced in adult male DBA/1 mice as previously described (Courtenay et al. (1980) Nature 283:666-8). Adult (12 week old) male DBA/1 mice were divided into groups of six animals. Mice received 100 μg per mouse of bovine type II collagen (Sigma) in Freunds Complete Adjuvant (FCA) by the subcutaneous route, while a control group received an identical injection of type I collagen in FCA. Twenty-one days later, all groups of mice received an intraperitoneal booster injection containing 100 μg per mouse of the same collagen type as previously, but in the absence of adjuvant. […] Foodpad thickness was determined each day using a digital caliper EC1507 (Moore & Wright) accurate to 0.01 mm. The thickness of each footpad was determined three times on each day by a single operator blind to the treatment condition of the mouse, and the footpad thickness of each mouse on each day was reported as the mean for the three measurements for all four paws. Errors represent the standard error of the mean among the six animals in each group.

[5] = pro-thrombin time (PTT) in men with coronary artery disease; conditions: men with coronary heart disease, 3 months, Tamoxifen 20 mg once daily, vs baseline
Procedure: Patients continued with all other medications (statins, ACE inhibitors, beta blockers, calcium channel blockers, diuretics etc), but no patients were taking warfarin or tirofiban.
The coagulant status of the individuals was assessed using the pro-thrombin time (PTT, measured clinically; Hinchingbrooke Hospital, UK). PTT was measured twice, one week apart, prior to beginning the study, and then after 90 days treatment. In each case, each patient acted as their own control, and the impact of the treatment on PTT was assessed using a paired Student's t-test comparing the PTT at 90 days with the average of the two baseline determinations.

[6] = critical micelle concentration; assay type: physicochemical; conditions: in the presence of 20% foetal calf serum
[7] = 12 to 24 weeks of age, Fish oils 100 mg/kg/day
[8] = 12 weeks in chow, TMX 1 mg/kg/day

Compound: CC(=O)Oc1ccccc1C(=O)O [Aspirin, acetylsalicylic acid]
- Level of mRNA, estimated by qPCR: tgfb3 ([1]; 10 μM A): 1.09 ± 0.08 fold-change
- Level of mRNA, estimated by qPCR: tgfb3 ([1]; 33 μM A): 1.06 ± 0.13 fold-change
- Level of mRNA, estimated by qPCR: tgfb3 ([1]; 100 μM A): 0.94 ± 0.09 fold-change
- Intimal lipid lesion area [2, 7]: 31,006 ± 7,176 μm2
- Intimal:media area ratio [2, 7]: 62 ± 9%
- Lipid lesion area [2, 7]: 35,860 ± 8,091 μm2
- Total intimal area [2, 7]: 65,209 ± 6.712 μm2
- Intimal lipid lesion area [2, 8]: 31,006 ± 7,176 μm^2
- Intimal:media area ratio [2, 8]: 62 ± 9%
- Lipid lesion area [2, 8]: 35,860 ± 8,091 μm^2
- Total intimal area [2, 8]: 65,209 ± 6,712 μm^2
- effect on total intimal area and intimal:medial area ratio ([2]; Example 2): did not affect
- reduction of vascular lipid lesion area ([2]; aspirin 30 mg/kg/day p.o): 6%
- effect on any measure of vascular lipid lesion area or plaque size ([2]; administered separately, fish oil 100 mg/kg/day p.o, aspirin 30 mg/kg/day p.o): no statistically significant effect

Compound: CC/C(=C(\c1ccccc1)c1ccc(OCCN(C)C)cc1)c1ccccc1 [Tamoxifen]
- Level of mRNA, estimated by qPCR: tgfb3 ([1]; 3.3 μM T): 0.92 ± 0.16 fold-change
- Level of mRNA, estimated by qPCR: tgfb3 ([1]; 10 μM T): 1.19 ± 0.21 fold-change
- Level of mRNA, estimated by qPCR: tgfb3 ([1]; 33 μM T): 1.31 ± 0.11 fold-change
- doses that significantly increased tgfb3 mRNA [1]: ≥ 10 µM
- Intimal lipid lesion area [2, 8]: 9,393 ± 2,221 * μm^2
- Lipid lesion area [2, 8]: 10,794 ± 2,820 * μm^2
- Total intimal area [2, 8]: 64,428 ± 4,294 μm^2
- reduction of vascular lipid lesion area ([2]; aspirin 30 mg/kg/day p.o): 72%
- reduction in risk of death from myocardial infarction [3]: 33%
- reduction of the maximal collagen-II induced footpad swelling [4]: 36%
- change in pro-thrombin time ([5]; Example 5, aspirin 75 mg once daily): +17%
- change in pro-thrombin time ([5]; Example 6, clopidogrel 75 mg once daily): +19%
- critical micelle concentration [6]: approximately 50 μM
